Measurements: patent US20220251105A1, “METHODS OF TREATING A MK2-MEDIATED DISORDER” (Celgene CAR LLC, priority 2019, published 2022)
Where two headings read alike, the source gives them in different places.

Tests used:
CAIA in BALB/c mice = experiment: collagen antibody-induced arthritis (CAIA) model; format: in vivo, mouse
[1] = system: Imiquimod ear swelling in BALB/c mice; experiment: imiquimod-induced ear swelling model; format: in vivo, mouse
[2] = system: cytokines and chemokines produced by ankylosing spondylitis patient cells (TNF-α, IL-17A, MCP-1, IL-6); experiment: ex vivo cytokine and chemokine production by ankylosing spondylitis patient cells; format: cell-based, human; conditions: ankylosing spondylitis patient cells in vitro
bone resorption activity = bone resorption activity in vitro; format: cell-based
[3] = single intravenous dose pharmacokinetics in CD-1 mice; format: in vivo, mouse; conditions: for Vd: read-out: Vdss
Description: (§1) In vitro and in vivo studies were conducted to characterize the absorption, PK, distribution, and metabolism of Compound 1. […] Additionally, plasma samples from single dose PK studies in mice and monkeys were evaluated for circulating metabolites.

[4] = single oral dose pharmacokinetics in CD-1 mice; format: in vivo, mouse
Description: as §1

[5] = single oral dose pharmacokinetics in Sprague Dawley rats; format: in vivo; conditions: rat
Description: as §1

[6] = CD-1, plasma, mouse, female, single IV 5 mg/kg
[7] = CD-1, plasma, mouse, male, single IV 5 mg/kg
[8] = CD-1, plasma, mouse, female, single oral 15 mg/kg
[9] = CD-1, plasma, mouse, female, single oral 100 mg/kg
[10] = CD-1, plasma, mouse, male, single oral 15 mg/kg
[11] = CD-1, plasma, mouse, male, single oral 100 mg/kg
[12] = Sprague Dawley, plasma, female, single oral 30 mg/kg
[13] = Sprague Dawley, plasma, male, single oral 30 mg/kg

CCOCc1cnc(Cl)nc1Oc1ccc2c(ccc3sc4c(c32)NC[C@@H](C)NC4=O)n1 [Compound 1]
% Inhibition, paw swelling (CAIA in BALB/c mice; 3 mg/kg, last day of dosing): 89.7% paw | Minimally Efficacious Dose (CAIA in BALB/c mice; endpoint paw swelling): 3 mg/kg | % Inhibition by ear thickness clinical score ([1]; 3 mg/kg, from area under the ear thickness-time curve): 57% by ear | Minimally Efficacious Dose ([1]; endpoint ear thickness): 3 mg/kg | production of cytokines and chemokines incl. TNF-α, IL-17A, MCP-1, IL-6 [2]: significantly inhibited | bone resorption activity (bone resorption activity): reduce bone resorption activity in vitro | AUC [3, 6]: 3400 ng·h/mL | AUC(0-inf) [3, 6]: 3430 ng·h/mL | clearance [3, 6]: 24.3 mL/min/kg | Vd [3, 6]: 2.49 L/kg | half-life ([3]; CD-1, plasma, mouse, female, single IV 5 mg/kg, read-out: t1/2,z (converted)): 396 min | AUC [3, 7]: 4160 ng·h/mL | AUC(0-inf) [3, 7]: 4350 ng·h/mL | clearance [3, 7]: 19.2 mL/min/kg | Vd [3, 7]: 5.08 L/kg | half-life ([3]; CD-1, plasma, mouse, male, single IV 5 mg/kg, read-out: t1/2,z (converted)): 438 min | half-life ([3]; both sexes, CD-1, mouse, plasma, iv, 5 mg/kg, mice, read-out: terminal half-life (converted)): ~420 min | systemic clearance as % of liver blood flow ([3]; mice, IV): approximately 25 % of liver blood flow | AUC [4, 8]: 5170 ng·h/mL | AUC(0-inf) [4, 8]: 5250 ng·h/mL | Cmax [4, 8]: 1980 ng/mL | Tmax ([4]; CD-1, plasma, mouse, female, single oral 15 mg/kg, read-out: tmax): 30 min | AUC [4, 9]: 28200 ng·h/mL | AUC(0-inf) [4, 9]: 28400 ng·h/mL | Cmax [4, 9]: 8080 ng/mL | Tmax ([4]; CD-1, plasma, mouse, female, single oral 100 mg/kg, read-out: tmax): 15 min | AUC [4, 10]: 2870 ng·h/mL | AUC(0-inf) [4, 10]: 3040 ng·h/mL | Cmax [4, 10]: 1270 ng/mL | Tmax ([4]; CD-1, plasma, mouse, male, single oral 15 mg/kg, read-out: tmax): 15 min | AUC [4, 11]: 19200 ng·h/mL | AUC(0-inf) [4, 11]: 19200 ng·h/mL | Cmax [4, 11]: 6600 ng/mL | Tmax ([4]; CD-1, plasma, mouse, male, single oral 100 mg/kg, read-out: tmax): 30 min | bioavailability ([4]; both sexes, CD-1, mouse, plasma, po, mice, doses in the range 15 to 375 mg/kg): 22 to 51% | Tmax ([4]; both sexes, CD-1, mouse, plasma, mice, oral dosing, read-out: time to maximum plasma concentration (tmax)): 15 to 60 min | F ([4]; mouse, female, single oral 15 mg/kg): 51% | F ([4]; mouse, female, single oral 100 mg/kg): 41% | F ([4]; mouse, male, single oral 15 mg/kg): 23% | F ([4]; mouse, male, single oral 100 mg/kg): 22% | AUC [5, 12]: 5940 ng·h/mL | AUC(0-inf) [5, 12]: 6610 ng·h/mL | Cmax [5, 12]: 4960 ng/mL | Tmax ([5]; Sprague Dawley, plasma, female, single oral 30 mg/kg, median, read-out: tmax): 30 min | AUC [5, 13]: 1190 ng·h/mL | AUC(0-inf) [5, 13]: 1290 ng·h/mL | Cmax [5, 13]: 1180 ng/mL | Tmax ([5]; Sprague Dawley, plasma, male, single oral 30 mg/kg, median, read-out: tmax): 15 min | Tmax ([5]; both sexes, Sprague Dawley, plasma, 30 mg/kg, rats, oral dosing, read-out: time to maximum plasma concentration (tmax)): 15 to 60 min | bioavailability ([5]; both sexes, Sprague Dawley, plasma, po, rats, doses in the range 15 to 375 mg/kg): 8 to 28% | F ([5]; female, single oral 30 mg/kg): 28%
